Assay results reported in patent publication US20230233425A1, “USE OF VOLATILE COMPOSITIONS TO LIMIT OR ELIMINATE THE PERCEPTION OF MALODOR” (Firmenich SA, priority 2017, published 2023).
Values joined by “and” are separate entries in the source; they are usually repeats but may differ in a detail not shown here. Identical values can stand only once.

Legend:
[1] = tested on: 1-octen-3-ol receptors OR2W1, Olfr93, Olfr120, Olfr398; experiment: Antagonists of 1-octen-3-ol receptors (Example 11); type: cell-based, mouse and human; design: Inhibition(%): concentration or dose not given beside the values; conditions: Table 19
[2] = tested on: geonol earthy/moss odor perception; experiment: Human sensory performance of test compounds with and without geonol; type: in vivo; conditions: for % Earthy/Moss Odor: Test Compound Only
Description: Sensory Evaluation: Five 16 oz glass jars containing either REF (geonol only), geonol only control, antagonist only, mixture of geonol and isointense antagonist, or mixture of geonol and low intensity antagonist were presented to the panelists (last four samples were randomized across panelists). The panelists were asked to familiarize themselves with the earthy/moss odor quality from the REF jar first, then rate the pleasantness, earthy/moss odor intensity and overall odor intensity of the next four samples on a 0-10 linear scale. The inter-stimulus interval between the samples was two minutes to avoid adaptation. […]
The results are shown in Tables 16 and 17, and FIGS. 3 to 5.

[3] = tested on: geonol receptors Olfr339, Olfr1487, Olfr1A1, OR11A1, Olfr96; experiment: Antagonists of geonol receptors (Example 11); type: cell-based, mouse and human; design: Inhibition(%): concentration or dose not given beside the values; conditions: Table 18
[4] = target: T1, OR51E1 olfactory receptor (Homo sapiens, UniProt Q8TCB6); experiment: Butyric acid olfactory receptor antagonist cell-based dose-response vs butyric acid EC80; conditions: butyric acid at EC80; Table 5
T1 construct: expressed in transfected cells
T1 sequence (Q8TCB6 1-318): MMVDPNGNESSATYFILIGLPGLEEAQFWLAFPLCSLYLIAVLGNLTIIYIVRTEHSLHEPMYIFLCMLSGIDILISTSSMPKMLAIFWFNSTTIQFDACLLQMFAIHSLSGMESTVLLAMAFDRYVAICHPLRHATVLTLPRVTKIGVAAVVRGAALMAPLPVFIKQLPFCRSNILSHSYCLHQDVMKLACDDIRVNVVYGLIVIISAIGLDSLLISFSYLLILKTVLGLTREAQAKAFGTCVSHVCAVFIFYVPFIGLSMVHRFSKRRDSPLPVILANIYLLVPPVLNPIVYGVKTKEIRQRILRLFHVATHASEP

[5] = Low Dilution Test Compound + Geonol (0.1%)
[6] = Medium Dilution Test Compound + Geonol (0.1%)

| IC50 [1] | IC50 [3] | Compound | Inhibition(%) [1] | Inhibition(%) [3] | other results |
| --- | --- | --- | --- | --- | --- |
| 53.6 µM | – | CCC(O)COC1CCCCC1C(C)(C)C (stereo not shown) | 13% | – | – |
| – | – | CCC(=CC[C@@H]1CC=C(C)C1(C)C)CO | – | – | % Earthy/Moss Odor Remaining [2, 5]: 85.20%; % Earthy/Moss Odor Remaining [2, 6]: 64.30%; % Earthy/Moss Odor [2]: 34.90% |
| 85.6 µM | – | CC1CCC2C(C)(C)C3CC12CC1OC13C (stereo not shown) | 91% | – | – |
| 65.2 µM | 894 µM | CC1COCc2cc3c(cc21)C(C)(C)C(C)C3(C)C (stereo not shown) | 84% | 56% | – |
| – | – | CC1=C[C@@H](C)[C@@H](C=O)CC1 | – | – | % Earthy/Moss Odor Remaining [2, 5]: 80.60%; % Earthy/Moss Odor Remaining [2, 6]: 71.50%; % Earthy/Moss Odor [2]: 48.10% |
| 12.5 µM | 42.4 µM | CC1C2CC(CC13C=CC(=O)CC3)C2(C)C (stereo not shown) | 87% | 27% | – |
| – | – | C[C@@H]1CC[C@]2(O)C(C)(C)[C@H]3CC[C@@]2(C)[C@@H]1C3 | – | – | % Earthy/Moss Odor Remaining [2, 5]: 104.60%; % Earthy/Moss Odor Remaining [2, 6]: 129.80%; % Earthy/Moss Odor [2]: 94.10% |
| 81 µM | 34.9 µM | CC1CCC2(O)C(C)(C)C3CCC2(C)C1C3 (stereo not shown) | 70% | 68% | – |
| 72.6 µM | – | CC(=O)OC1(C)CCC23CC1C(C)(C)C2CCC3C (stereo not shown) | 52% | – | – |
| 54.6 µM | 36.6 µM | C=C(C[C@H](C)CO)[C@H]1CC=C(C)C1(C)C | 27% | 33% | – |
| 101 µM | 27.1 µM | CC1(C)CCCC2(C)C1CCC1(C)OCCC12 (stereo not shown) | 105% | 78% | – |
| 83.7 µM | – | Cc1cc2c(cc1C=O)C(C)(C)[C@H](C)[C@@H](C)C2(C)C | 64% | – | – |
| – | 164 µM | CC(=O)O[C@H]1CCCC[C@@H]1C(C)(C)C | – | 56% | % Earthy/Moss Odor [2]: 15.30% |
| – | 267 µM | CC(=O)O[C@@H]1C(C)(C)CCC[C@@]12CC=C(C)C[C@@H]2C | – | 38% | IC50 [4]: 37.7 µM |
| 35.9 µM | 49.1 µM | 1-(2,6,6-trimethylcyclohexen-1-yl)hepta-1,6-dien-3-one; 1-(2,6,6-trimethylcyclohex-2-en-1-yl)hepta-1,6-dien-3-one | 49% | 66% | IC50 [4]: 100 µM |
| – | 295 µM | 3-acetyloxynonyl acetate; (3-pentyloxan-4-yl) acetate | – | 20% | % Earthy/Moss Odor Remaining [2, 5]: 81.10%; % Earthy/Moss Odor Remaining [2, 6]: 62.50%; % Earthy/Moss Odor [2]: 26.20% |
| 39.3 µM | 31.7 µM | O=C1CCCCCCCCCCCC(=O)OCCO1 [1,4-dioxacycloheptadecane-5,17-dione] | 38% | 21% | – |
| 477 µM | – | CC=CC(=O)C1=C(C)CCCC1(C)C [1-(2,6,6-trimethylcyclohexen-1-yl)but-2-en-1-one] | 72% | – | – |
| 175 µM | 201 µM | CC(CCCC(C)(C)O)CC(O)n1ccc2ccccc21 (stereo not shown) [1-indol-1-yl-3,7-dimethyloctane-1,7-diol] | 46% | 46% | – |
| 153 µM | 41 µM | c1ccc(CCCc2ccccn2)cc1 [2-(3-phenylpropyl)pyridine] | 31% | 196% | – |

| IC50 [1] | IC50 [3] | Compound | Inhibition(%) [1] | Inhibition(%) [3] | other results |
| --- | --- | --- | --- | --- | --- |
| 57.1 µM | – | C=CC(C)(CCC=C(C)C)OC(=O)C(C)C (stereo not shown) [3,7-dimethylocta-1,6-dien-3-yl 2-methylpropanoate] | 88% | – | – |
| 190 µM | – | CC(C)=CCCC(C)=CCO [3,7-dimethylocta-2,6-dien-1-ol] | 18% | – | – |
| 117 µM | – | CC(C)(C)Cc1cccnc1 [3-(2,2-dimethylpropyl)pyridine] | 25% | – | – |
| 120 µM | 110 µM | CC(=O)C(C)=CC1C(C)=CCCC1(C)C (stereo not shown) [3-methyl-4-(2,6,6-trimethylcyclohex-2-en-1-yl)but-3-en-2-one] | 37% | 58% | – |
| – | 28.8 µM | CC1=CCC(CCC(C)C(C)O)C1(C)C (stereo not shown) [3-methyl-5-(2,2,3-trimethylcyclopent-3-en-1-yl)pentan-2-ol] | – | 32% | – |
| – | 1100 µM | CC(CCO)CCc1ccccc1 (stereo not shown) [3-methyl-5-phenylpentan-1-ol] | – | 37% | – |
| 72.7 µM | – | CC(=O)C=CC1=C(C)CCC(C)C1(C)C (stereo not shown) [4-(2,5,6,6-tetramethylcyclohexen-1-yl)but-3-en-2-one] | 23% | – | – |
| – | 517 µM | CC(C)CC(O)Cc1ccccc1 (stereo not shown) [4-methyl-1-phenylpentan-2-ol] | – | 36% | – |
| – | 197 µM | CCCCCCCC1CCCC(=O)O1 (stereo not shown) [6-heptyloxan-2-one] | – | 29% | – |
| – | 195 µM and 147 µM | CCCCC[C@H]1CCC[C@H]1O [(1~{R},2~{S})-2-pentylcyclopentan-1-ol] | – | – | – |
| – | 386 µM | CC(=O)OC(C)(C)Cc1ccccc1 [(2-methyl-1-phenylpropan-2-yl) acetate] | – | 54% | % Earthy/Moss Odor [2]: 34.00% |
| 23.4 µM | – | C[C@@H]1CC=CCCCCCCCCCC(=O)C1 [(3~{R})-3-methylcyclopentadec-5-en-1-one] | 79% | – | IC50 [4]: 53.7 µM |
| 93.8 µM | – | CC(=O)OC1CCC(C(C)(C)C)CC1 (stereo not shown) [(4-{tert}-butylcyclohexyl) acetate] | 79% | – | – |
| – | – | CC(CCO)CCc1ccccc1 (stereo not shown) [Compound 3-methyl-5-phenylpentan-1-ol, 3-methyl-5-phenylpentan-1-ol] | – | – | % Earthy/Moss Odor [2]: 11.30% |
| – | 220 µM | CC(C)CC(=O)OCc1ccccc1 [benzyl 3-methylbutanoate] | – | 41% | – |
| – | 262 µM | CCCCCCCC=CC=O [dec-2-enal] | – | 40% | – |
| – | 213 µM | COC(=O)c1ccccc1NC=CC(C)CCCC(C)(C)O (stereo not shown) [methyl 2-[(7-hydroxy-3,7-dimethyloct-1-enyl)amino]benzoate] | – | 103% | – |
| – | – | COC(=O)CCCCCCCC/C=C/C=O [methyl (10E)-12-oxo-10-dodecenoate] | – | 86% | – |
| – | – | OCCc1ccccc1 [phenylethylol, 2-PHENYLETHANOL] | – | – | % Earthy/Moss Odor [2]: 47.50% |

| Compound | IC50 [1] | IC50 [3] | Inhibition(%) [1] | Inhibition(%) [3] | other results |
| --- | --- | --- | --- | --- | --- |
| CC(=O)c1c(C)c([N+](=O)[O-])c(C(C)(C)C)c([N+](=O)[O-])c1C | 84.7 µM | – | 98% | – | – |
| 1-(2,2-dimethyl-6-methylidenecyclohexyl)pent-1-en-3-one; 3-methyl-4-(2,6,6-trimethylcyclohex-2-en-1-yl)but-3-en-2-one; 1-(2,6,6-trimethylcyclohexen-1-yl)pent-1-en-3-one; 1-(2,6,6-trimethylcyclohex-2-en-1-yl)pent-1-en-3-one | 66.8 µM | 136 µM | 56% | 49% | – |
| CC(=O)/C=C/C1C(C)=CCCC1(C)C (racemic) [(+−)-(3E)-4-(2,6,6-trimethyl-2-cyclohexen-1-yl)-3-buten-2-one] | 462 µM | – | 79% | – | – |
| CCOC(=O)c1ccccc1C(=O)OCC [diethyl benzene-1,2-dicarboxylate] | – | 1580 µM | – | 32% | – |
